# Key:
# [1] = tested on: mouse primary articular chondrocytes; experiment: Chondrocyte viability by lactate dehydrogenase (LDH) assay; type: cell-based; details: 12 h, NCD 0, 10, 20, 50, 100 µM, JQ1 different concentrations
# [2] = tested on: NF-κB and MAPK signaling in mouse articular chondrocytes; experiment: IL-1β-induced NF-κB and MAPK signaling in chondrocytes (western blotting, densitometry); type: cell-based; details: NCD 10, 50, 100 μM pretreatment 12 h, IL-1β 1 ng/mL 10 min
# Description: (§1) The total protein was extracted from the primary cultured chondrocytes using a lysis buffer, containing 150 mM NaCl, 1% NP-40, 50 mM Tris/HCl (pH 8.0), 0.2% sodium dodecyl sulfate, and 5 mM NaF, supplemented with protease and phosphatase inhibitor mixture (Roche, Madison, WI, USA). Proteins were separated using sodium dodecyl sulfate-polyacrylamide gel electrophoresis, and western blot analysis was performed using the following antibodies: goat anti‐Cox2 (sc‐1745; Santa Cruz Biotechnology, Dallas, TX, USA), mouse anti-Erk1/2 (610408; Becton Dickinson, NJ, USA), mouse anti-IκB [9242; Cell Signaling Technology (CST), MA, USA], mouse anti-p65 (8242; CST), mouse anti-phospho-p65 (3033; CST), mouse anti-p38 (#9212; CST), mouse anti-pp38 (#9215S; CST), mouse anti-c-Jun N-terminal kinase (Jnk) (#9252S; CST), mouse anti-pJnk (#9251S; CST), and mouse anti-pErk (#9101S; CST). Each signal was visualized using a SuperSignal West Dura Kit (Thermo Fisher Scientific, Waltham, MA, USA). Density analysis (AlphaEase FC 4.0; Alpha Innotech, CA, USA) was performed to calculate the relevant band intensities. Extracellular signal-regulated kinase (Erk) was used as the loading control ([28]).
# Figure 6 NCD regulates NF-κB and MAPK signaling pathways induced by IL-1β in mouse chondrocytes. Articular chondrocytes were pretreated with NCD at different concentrations (0,10, 50, or 100 μM) for 12 h (n = 3) before being stimulated with IL-1β (1 ng/mL) for 10 min. Levels of phosphorylated Jnk (pJnk), phosphorylated Erk (pErk), and phosphorylated p38 (pp38) proteins were determined using western blotting. (A, B) Protein levels of IκB were detected using western blotting (A) and densitometry (B). JQ-1 (200 μM) was used as a positive control. All data were analyzed using one‐way analysis of variance with Bonferroni’s test and expressed as mean ± standard error of mean (SEM) (n = 3); *P < 0.05, **P < 0.01, ***P < 0.001, and ****P < 0.0001 compared to the control group.
# [3] = tested on: liver, lungs of mice; experiment: In vivo organ histology after oral or IA administration
# [4] = tested on: DMM-induced OA in C57BL/6J mice; experiment: DMM-induced OA mouse model, intra-articular injection; type: in vivo
# Description: All experiments were independently performed with at least three biological replicates to ensure reproducibility. For in vivo studies, animals were randomly assigned to treatment or control groups. To create a DMM-induced OA model, DMM surgery was performed on 12-week-old male C57BL/6J mice, following a previously reported protocol ([26]). Subsequently, NCD was either orally administered or injected in mice; the NCD (50 mg/kg) was orally administered on alternate days 4 weeks after DMM, whereas IA knee injection of NCD (10 μg) was administered once a week after 4 weeks. The mouse knee joint was processed for histological analysis 10 weeks after surgery. All experiments were independently performed with at least three biological replicates to ensure reproducibility. For in vivo studies, animals were randomly assigned to treatment or control groups. For in vitro experiments, cells were plated using a randomized layout across multi-well plates to avoid positional effects and ensure unbiased treatment assignment
# All histological samples were prepared independently by two researchers. Cartilage destruction was evaluated based on Safranin O staining and scored using the OA Research Association International (OARSI) grading system ([29]). Additionally, all histological samples were analyzed through osteophyte maturity scoring and subchondral bone plate (SBP) thickness. Osteophyte maturity was scored as described previously ([30]). Briefly, the scoring was as follows: 0 = none, 1 = predominantly cartilaginous, 2 = mixed cartilage and bone with active vascular invasion and endochondral ossification, 3 = predominantly bone. SBP thickness was measured to analyze subchondral bone sclerosis. All experiments were independently performed over at least three replicates. […] For each sample, measurements were performed on serial sections, and the mean value was calculated for analysis. The samples were […] by treating with 0.5 M ethylenediamine tetraacetic acid (pH 8.0) for 2 weeks. Next, mouse knee joint samples were fixed using 4% paraformaldehyde and embedded in paraffin. The paraffin-embedded samples were cut into 5-μm sections and fixed on glass slides. The tissue sections were then hydrated using a graded ethanol series, which removed paraffin and xylene. Mouse knee joint sections were immunohistochemically analyzed using anti-Mmp3 (ab52915, Abcam, Cambridge, UK), anti-Mmp13 (ab51072, Abcam), and anti-Cox2 (66351-I-Ig, ProteinTech, Rosemont, ILllinois, USA).
# [5] = tested on: IL-1β-induced Mmp3, Mmp13 and Cox2 expression in mouse articular chondrocytes; experiment: IL-1β-induced Mmp3, Mmp13, Cox2 expression in chondrocytes (qRT-PCR, western blotting); type: cell-based; details: IL-1β 1 ng/mL
# Description: NCD was supplied by Benobio Co (Gyeonggi-do, Korea), and IL‐1β was purchased from GenScript (Piscataway, NJ, USA). NCDs were dissolved in phosphate-buffered saline (PBS) for oral administration or IA injection.
# Total RNA was extracted from mouse articular chondrocytes using TRIzol (Molecular Research Center Inc., Cincinnati, OH, USA) and the primers used were for the MMPs, glyceraldehyde 3-phosphate dehydrogenase (GAPDH), and Cox2. Primers utilized were as follows: mouse Mmp3 (5′-TCCTGATGTTGGTGGCTTCAG-3′ and 5′-TGTCTTGGCAAATCCGGTGTA-3′); mouse Mmp13 (5′-TGATGGACCTTCTGGTCTTCTGG-3′ and 5′-CATCCA CATGG TTGGG AAGT TCT-3′); mouse Cox2 (5′-GGTCTGGTGCCTGGTCTGATGAT-3′ and 5′-GTCCTTTCAAGGAGAATGGTGC-3′); mouse Gapdh (5′-TCACT GCCAC CCAGA AGAC-3′ and 5′-TGTAG GCCAT GAGGT CCAC-3′). Gene transcript expression levels were normalized against that of Gapdh by qRT-PCR using SYBR premix ExTaq (Takara Bio, Shiga, Japan). Results were expressed as fold-changes relative to the expression in the control group ([20]).
# as §1
# [6] = IA injection 10 μg once a week from 4 weeks after DMM, 10 weeks after surgery, vs PBS
# [7] = NCD 10, 50, 100 µM, 12 h, qRT-PCR
compound,measurement,setting,value
"CNC(=O)CC1C(=O)NCCN1Cc1ccc(-c2ccccc2-c2cccc3c2CN(C)C3=O)o1 (stereo not drawn) [NCD, N-methyl-2-(1-((5-(2-(2-methyl-1-oxoisoindolin-4-yl)phenyl)furan-2-yl)methyl)-3-oxopiperazin-2-yl)acetamide]",Cell viability / cytotoxicity (LDH assay),[1],no significant cytotoxic effects
same,Degradation of IκB,[2],effectively prevented
same,Phosphorylation level of ERK,[2],markedly reduced
same,Phosphorylation level of JNK,[2],markedly reduced
same,Phosphorylation of the p65 subunit,[2],significantly suppressed
same,p38 phosphorylation,[2],remained largely unaffected
same,Cytotoxicity in the liver or lungs (histological analyses),[3]; oral and intra-articular administration,no apparent cytotoxicity
same,Organ toxicity in vivo,[3]; oral or IA routes,without causing detectable organ toxicity
same,OARSI grade,[4]; [6],significant reduction
same,Osteophyte maturity,[4]; [6],significant reduction
same,SBP thickness,[4]; [6],significant reduction
same,"Expression of Mmp3, Mmp13 and Cox2 in knees (immunohistochemistry)","[4]; IA injection 10 μg, DMM mice",lower expression levels
same,NITEGE expression,"[4]; IA injection 10 μg, DMM mice",reduced
same,Type II collagen levels (immunohistochemistry),"[4]; IA injection 10 μg, DMM mice",partially preserved
same,Cox2 mRNA expression,[5]; [7],"marked, concentration-dependent suppression"
same,Mmp3 mRNA expression,[5]; [7],"marked, concentration-dependent suppression"
same,Mmp13 mRNA expression,[5]; [7],"marked, concentration-dependent suppression"
same,mRNA and protein levels of Cox2,[5]; NCD 50 and 100 µM,substantially reduced
